Measurements as given in ChEMBL document CHEMBL4028904, “Discovery of a Novel Series of Tankyrase Inhibitors by a Hybridization Approach” (J Med Chem, 2017).

How the values were obtained:
[1] = biological target: T1, Poly [ADP-ribose] polymerase tankyrase-2 (Homo sapiens, UniProt Q9H2K2); experiment: Inhibition of human TNKS2 (873 to 1162 residues) assessed as reduction in NAD+ consumption by fluorescence assay
T1 sequence (Q9H2K2 whole entry): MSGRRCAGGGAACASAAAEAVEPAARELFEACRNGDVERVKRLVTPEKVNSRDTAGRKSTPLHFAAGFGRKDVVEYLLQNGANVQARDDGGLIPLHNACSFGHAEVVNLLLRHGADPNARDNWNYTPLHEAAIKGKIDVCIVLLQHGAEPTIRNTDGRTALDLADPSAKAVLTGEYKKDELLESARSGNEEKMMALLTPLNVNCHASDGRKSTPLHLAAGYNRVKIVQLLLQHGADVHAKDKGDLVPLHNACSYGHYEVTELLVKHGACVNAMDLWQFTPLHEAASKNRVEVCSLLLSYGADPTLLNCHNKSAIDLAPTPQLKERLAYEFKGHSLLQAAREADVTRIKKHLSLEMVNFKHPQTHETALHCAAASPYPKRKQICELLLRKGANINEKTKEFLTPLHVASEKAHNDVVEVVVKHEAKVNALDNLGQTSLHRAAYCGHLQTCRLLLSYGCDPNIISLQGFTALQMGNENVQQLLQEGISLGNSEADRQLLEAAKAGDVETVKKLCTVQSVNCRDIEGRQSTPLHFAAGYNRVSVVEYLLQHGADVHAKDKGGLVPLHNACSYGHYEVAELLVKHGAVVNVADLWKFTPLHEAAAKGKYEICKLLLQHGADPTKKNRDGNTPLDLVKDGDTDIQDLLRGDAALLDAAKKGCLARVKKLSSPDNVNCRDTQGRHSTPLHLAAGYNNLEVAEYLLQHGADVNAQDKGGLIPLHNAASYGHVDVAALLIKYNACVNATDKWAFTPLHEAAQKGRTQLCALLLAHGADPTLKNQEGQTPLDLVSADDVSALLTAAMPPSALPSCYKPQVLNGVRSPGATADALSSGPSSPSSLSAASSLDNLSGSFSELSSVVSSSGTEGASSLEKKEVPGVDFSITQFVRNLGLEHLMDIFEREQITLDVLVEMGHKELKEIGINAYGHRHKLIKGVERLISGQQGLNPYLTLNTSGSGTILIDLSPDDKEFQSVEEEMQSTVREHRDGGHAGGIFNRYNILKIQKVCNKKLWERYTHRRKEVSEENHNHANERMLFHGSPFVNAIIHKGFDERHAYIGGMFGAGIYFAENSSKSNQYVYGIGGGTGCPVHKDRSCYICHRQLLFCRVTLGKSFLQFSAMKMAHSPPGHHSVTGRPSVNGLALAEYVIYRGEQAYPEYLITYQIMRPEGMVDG

[2] = biological target: T1, Poly [ADP-ribose] polymerase tankyrase-2; experiment: Inhibition of TNKS2 (unknown origin) transfected in human SW480 cells assessed as inhibition of Wnt3a-induced Wnt/beta-catenin signaling after 48 hrs by ST-luciferase reporter gene assay; format: cell-based
[3] = biological target: T1, Poly [ADP-ribose] polymerase tankyrase-2; experiment: Inhibition of TNKS2 (unknown origin) expressed in HEK293 cells assessed as inhibition of Wnt3a-induced Wnt/beta-catenin signaling after 24 hrs by luciferase reporter gene assay; format: cell-based

Question: How did the IC50 [1] turn out when `N#Cc1ccc2c(c1)[nH]c(=O)n2[C@H]1CC[C@H](c2nnc(-c3ccncn3)n2-c2ccccc2Cl)CC1` was run?
Answer: 330 nM

Question: And the IC50 [2]?
Answer: 1490 nM

Question: What about the IC50 [3] of the same compound?
Answer: 120 nM
